{
  "source": "patent US20190282616A1",
  "about": "“MACROPHAGES REDIRECT PHAGOCYTOSIS BY NON-PROFESSIONAL PHAGOCYTES AND INFLUENCE INFLAMMATION” (University of Virginia Patent Foundation, priority 2016, published 2019)",
  "key": {"LR73 cells": {"system": "LR73 cells", "assay": "In vitro engulfment assay: apoptotic thymocyte uptake by LR73 cells", "format": "cell-based, hamster", "protocol": "LR73, SVEC-40, BEAS-2B, and 16HBE14o-cells were seeded in a 24 well plate. Thymocytes were isolated from 4-6 week old mice and induced to undergo apoptosis with dexamethasone. Thymocytes or prepared microvesicles were then stained with either CypHer5E (GE Healthcare, PA15401) or TAMRA (Invitrogen, C-1171). LR73 and SVEC-40 cells were incubated with apoptotic thymocytes at a 1:10 phagocyte to target ratio, BEAS-2B at a 1:5 phagocyte to target ratio, and 16HBE14o—at a 1:20 phagocyte to target ratio for 2 hours. Mouse IGF-I (Sigma-Aldrich), human IGF-I (Sigma-Aldrich), human IGF-II (Sigma-Aldrich) were added to the phagocytes at the same time as addition of apoptotic targets. For IGFBP3 studies, IGFBP3 (Sigma-Aldrich) was added to media or supernatant from J774 cells for one hour to allow IGFBP3 to bind to any available IGF-I, then the mix is added to phagocytes along with apoptotic targets. For all pharmacological studies, phagocytes were pre-incubated with the compounds listed below for one hour prior to addition of apoptotic targets: cytochalasin D (Sigma-Aldrich, C8273, 1 μM), Latrunculin A (Tocris, 3973, 150 nM), CK-666 (Tocris, 3950, 25 μM-100 μM), OSI-906 (Selleckchem, S1091, 5 nM-40 nM), NVP-AEW541 (Selleckchem, S1034, 25 nM-100 nM), Rapamycin (Sigma-Aldrich, R0395, […]), MK-2206 2HCl (Selleckchem, S1078, 10 nM-1 U0126-EtOH (Selleckchem, S1102, […]), Wortmannin (Sigma-Aldrich, W1628, 50 nM-200 nM), Y27632 (Calbiochem, 688000, 3.75 μM-15 μM), or GSK269962 (Tocris, 4009, 80 nM-2 μM). […] Targets were then washed off three times with PBS, and the cells were dissociated from the plate with trypsin and the engulfment assessed by flow cytometry."}, "[1]": {"system": "SVEC-40 endothelial cells", "assay": "In vitro engulfment assay: apoptotic thymocyte uptake by SVEC-40 cells", "format": "cell-based, mouse", "settings": "IGF-1 treatment", "protocol": "LR73, SVEC-40, BEAS-2B, and 16HBE14o-cells were seeded in a 24 well plate. Thymocytes were isolated from 4-6 week old mice and induced to undergo apoptosis with dexamethasone. Thymocytes or prepared microvesicles were then stained with either CypHer5E (GE Healthcare, PA15401) or TAMRA (Invitrogen, C-1171). LR73 and SVEC-40 cells were incubated with apoptotic thymocytes at a 1:10 phagocyte to target ratio, BEAS-2B at a 1:5 phagocyte to target ratio, and 16HBE14o—at a 1:20 phagocyte to target ratio for 2 hours. Mouse IGF-I (Sigma-Aldrich), human IGF-I (Sigma-Aldrich), human IGF-II (Sigma-Aldrich) were added to the phagocytes at the same time as addition of apoptotic targets. For IGFBP3 studies, IGFBP3 (Sigma-Aldrich) was added to media or supernatant from J774 cells for one hour to allow IGFBP3 to bind to any available IGF-I, then the mix is added to phagocytes along with apoptotic targets. […] Targets were then washed off three times with PBS, and the cells were dissociated from the plate with trypsin and the engulfment assessed by flow cytometry."}, "[2]": {"system": "IGF-1R, Akt and Erk1/2 phosphorylation in LR73 cells", "assay": "Immunoblotting of signaling in LR73 cells", "format": "cell-based, hamster", "settings": "LR73 cells, IGF-1 treatment", "protocol": "LR73, J774, or BEAS-2B cells were seeded in a 60 mm dish at a concentration of 5×10^5. […] Cells were lysed in RIPA buffer and used in Western blots. The blots were probed for phospho-Erk1/2 (Cell Signaling Technology, #4370), phospho-Akt (Cell Signaling Technology, #4060), phospho-IGF-1R (Cell Signaling, #3024), total Erk2 (Santa Cruz Biotechnology, #sc-154-G), total Akt (Cell Signaling Technology, #4691), total IGF-1R (Cell Signaling, #9750), and anti-B-actin-HRP (Sigma-Aldrich, #A3854) followed by chemiluminescence detection."}, "[3]": {"system": "phosphatidylserine (PtdSer) on apoptotic thymocytes", "assay": "Annexin V binding to apoptotic thymocytes", "format": "cell-based, mouse", "settings": "n=6"}, "J774 macrophage cells": {"system": "J774 macrophage cells", "assay": "Apoptotic thymocyte phagocytosis by J774 macrophage cells", "format": "cell-based", "settings": "even with supra-physiological concentrations of IGF-1, every time point"}, "[4]": {"system": "bone marrow derived macrophages", "assay": "Apoptotic cell engulfment by bone marrow derived macrophages", "format": "cell-based, mouse", "settings": "even with supra-physiological concentrations of IGF-1", "protocol": "(§1) To obtain bone-marrow derived macrophages, femurs were removed from 8 week old mice and flushed with 5 mL of sterile PBS containing 5% FBS. The cell suspension was centrifuged, treated with red blood cell lysis buffer, washed, and then plated onto sterile petri dishes in DMEM containing 10% L929 media, 10% FBS and 1% penicillin/streptomycin/glutamine (PSQ). Media was replenished every 2 to 3 days and differentiated cells were used at day 6 post-harvest. Resident peritoneal macrophages were obtained by flushing the peritoneal cavity of mice with 10 mL of cold PBS containing 5% FBS. Collected cells were spun down, resuspended in X-VIVO 10 (Lonza) and plated at a concentration of 3×10^5 cells per well in a 24 well plate for IGF-1 secretion assays, and 5×10^5 per well in a 24 well plate for engulfment assays. Floating cells were washed the next day and remaining peritoneal macrophages were used 2 days after isolation. Alveolar macrophages were isolated by flushing the lungs with 1 mL of cold PBS instilled intratracheally (five flushes). Collected cells were centrifuged, resuspended in F12K media containing 10% FBS and 1% PSQ, and seeded at 1×10^5 cells per well in a 48-well plate. All floating cells were washed away the next day and remaining cells were used in assays 2 days after isolation."}, "[5]": {"system": "resident peritoneal macrophages", "assay": "Liposome uptake by resident peritoneal macrophages", "format": "cell-based, mouse", "settings": "exposed to IGF-1 vs control", "protocol": "as §1"}, "[6]": {"system": "IGF-1R and Akt phosphorylation in macrophages", "assay": "Immunoblotting of IGF-1R and Akt phosphorylation in macrophages", "format": "cell-based", "settings": "100 ng/mL mouse IGF-1", "protocol": "LR73, J774, or BEAS-2B cells were seeded in a 60 mm dish at a concentration of 5×10^5. Cells were serum-starved for 6 hours and then stimulated with 100 ng/mL of IGF-1 for various time points. Cells were lysed in RIPA buffer and used in Western blots. The blots were probed for phospho-Erk1/2 (Cell Signaling Technology, #4370), phospho-Akt (Cell Signaling Technology, #4060), phospho-IGF-1R (Cell Signaling, #3024), total Erk2 (Santa Cruz Biotechnology, #sc-154-G), total Akt (Cell Signaling Technology, #4691), total IGF-1R (Cell Signaling, #9750), and anti-B-actin-HRP (Sigma-Aldrich, #A3854) followed by chemiluminescence detection."}, "[7]": {"system": "YFP airway epithelial cells", "assay": "In vivo engulfment assay: airway epithelial cells", "parameters": "species or system mouse", "settings": "1 μg IGF-1 intranasally", "protocol": "(§2) CCSP-Cre/YFP mice were administered PBS or 1 μg of IGF-1 intranasally. One hour later, 100 million CypHer5E-labelled apoptotic thymocytes with or without IGF-I were injected intranasally for 3.5 hours. The BAL fluid was harvested and the lungs excised, minced, and digested into a single cell suspension. The cells were then stained with appropriate markers: CD11c and Siglec F for alveolar macrophage markers and EpCam (along with YFP expression) for airway epithelial cells and analyzed by flow cytometry to assess apoptotic cell uptake by the airway epithelial cells and the alveolar macrophages."}, "alveolar macrophages": {"system": "alveolar macrophages", "assay": "In vivo engulfment assay: alveolar macrophages", "parameters": "species or system mouse", "settings": "same IGF-1 treated mice", "protocol": "as §2"}},
  "data": [
    {"substance": "insulin-like growth factor I [IGF-1]", "values": [
      {"measurement": "engulfment with IGF-1 added simultaneously with apoptotic cells", "setting": "LR73 cells; data not shown", "result": "inhibited engulfment similar to pre-treated cells"},
      {"measurement": "apoptotic cell uptake (engulfment) by LR73 cells", "setting": "LR73 cells; soluble mediator alone, IGF-I at concentrations reported in serum (100-600 ng/mL), other factors over a range of concentrations", "result": "significantly dampened apoptotic cell uptake"},
      {"measurement": "apoptotic cell uptake by LR73 cells with macrophage produced IGF-1", "setting": "LR73 cells; supernatant of J774 cells treated with rIL-4 for 24 hrs", "result": "could also suppress apoptotic cell uptake by LR73 cells"},
      {"measurement": "apoptotic thymocyte uptake by SVEC-40 cells", "setting": "[1]", "result": "engulfment dampening effect of IGF-1 was also seen"},
      {"measurement": "phosphorylation of Akt", "setting": "[2]", "result": "elicited phosphorylation of Akt"},
      {"measurement": "masking of phosphatidylserine on apoptotic cells (Annexin V binding)", "setting": "[3]", "result": "not due to masking phosphatidylserine"},
      {"measurement": "corpse uptake by J774 cells", "setting": "J774 macrophage cells", "result": "did not affect corpse uptake"},
      {"measurement": "corpse uptake by bone marrow-derived macrophages", "setting": "[4]", "result": "did not affect corpse uptake"},
      {"measurement": "liposome uptake by peritoneal macrophages", "setting": "[5]", "result": "comparable liposome uptake as control treated cells"},
      {"measurement": "early signaling in macrophages (IGF-1R and Akt phosphorylation)", "setting": "[6]", "result": "initiated early signaling in macrophages"},
      {"measurement": "apoptotic cell engulfment by YFP airway epithelial cells in vivo", "setting": "[7]; apoptotic thymocytes", "result": "decreased apoptotic cell engulfment"},
      {"measurement": "liposome uptake by YFP airway epithelial cells in vivo", "setting": "[7]; liposomes", "result": "enhanced lipo some uptake"},
      {"measurement": "engulfment of apoptotic cells or liposomes by lung macrophages in vivo", "setting": "alveolar macrophages", "result": "unaffected in their ability to engulf these targets"}
    ]}
  ]
}
